The term IC50 denotes the point on the concentration scale where inhibition reaches its midpoint.

“Also recorded” adds a separate entry of the source.

Experiment [1] concerns the target T1, recombinant human Casp1 (Homo sapiens, UniProt P29466).
T1 sequence (P29466 120-297 limits assumed): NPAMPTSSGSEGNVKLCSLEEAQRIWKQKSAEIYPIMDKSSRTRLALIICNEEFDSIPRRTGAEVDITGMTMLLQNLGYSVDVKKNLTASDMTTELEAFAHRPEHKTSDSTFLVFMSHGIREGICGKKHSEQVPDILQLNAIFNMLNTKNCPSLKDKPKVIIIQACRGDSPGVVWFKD
T1 sequence (P29466 317-404 limits assumed): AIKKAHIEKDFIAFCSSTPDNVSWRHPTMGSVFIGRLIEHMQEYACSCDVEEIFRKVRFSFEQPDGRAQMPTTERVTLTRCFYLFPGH
In words: Caspase inhibition IC50, recombinant human Casp1. It counts as biochemical. Conditions: read-out: IC50 against human Casp1. How it is done: FIG. 14: Selectivity and blood brain permeability of VX-765 and VRT-043198. (a-b) IC50 of VX-765 (a) and VRT-043198 (b) against human Casp1-10. (c-d) IC50 of VX-765 (c) and VRT-043198 (d) against mouse Casp1 and Casp11. (e) Blood brain barrier permeability and presence of VX-765 and VRT-043198 in 3 wild type and 4 J20 mice brain cortex and hippocampus and in plasma. Ratios of brain levels to plasma levels are calculated.

Experiment [2] deals with J20 mice. Put plainly: Aβ immunostaining, thioflavin S and ELISA, treated symptomatic J20 mice brains. Format: in vivo, mouse. From the text:
FIG. 11: VX-765 prevents the progression of Aβ in J20 mice. (a) Aβ immunohistographs of the stratum lacunosum molecular layer of the hippocampus and S1 cortex of pre-treated 5-month old J20 (baseline) and 8-month old vehicle- or VX-765-treated WT or J20 mice with anti-F2576 antiserum (Scale bar=50 μm). (b) Quantitative analysis comparing Aβ immunostaining density between J20+Vehicle (n=5) and J20+VX-765 (n=4) mice in the hippocampus from the pyramidal cell layer to the stratum lacunosum molecular layer (p=0.0029) and cortex (p=0.0314, unpaired t test). (c) Quantitative analysis comparing RIPA-soluble Aβ42 over total Aβ (Aβ38+Aβ40+Aβ42) levels in pre-treated 5-month old J20, 8-month old vehicle- or VX-765 treated J20 mice hippocampus (F(2,9)=6.614, p=0.0171, ANOVA, Tukey's post-hoc, * p<0.05). No ELISA signal was obtained from WT mice brains. (d) RIPA-soluble total Aβ measured by ELISA in pg/mg brain tissue. (e,f) Formic acid soluble Aβ42 over total Aβ (Aβ38+Aβ40+Aβ42) (e) and total Aβ (f) levels measured by ELISA in pg/mg brain tissue. Student t-test used to assess difference between J20+vehicle and J20+VX-765. (g,h,i) RIPA-soluble and (j,k,l) formic acid soluble Aβ38, Aβ40, and Aβ42 measured by ELISA in pg/mg brain tissue. (m) APP mRNA and protein levels and (n) insulin degrading enzyme (IDE) and neprilysin mRNA levels (o) in hippocampus and cortex.
FIG. 19: Aβ stained with Thioflavin S or anti-Aβ1-40 F25276 antiserum in mice hippocampi or cortex. (a) Comparison of anti-Aβ immunostaining and thioflavin S stained Aβ in 8 month old vehicle-treated WT and J20 and in VX-765-treated J20 brain hippocampi and cortex (after T3). (b) Anti-Aβ F25276 immunopositive staining in 8 month old vehicle-treated J20, J20/Casp1−/−, and VX-765-treated (T3) mice hippocampi. (c) Higher magnification of Aβ and Iba1 immunopositive deposits in 8 month old vehicle-treated J20, J20/Casp1^−/−, and VX-765-treated (T3) mice hippocampi.
(§1) To assess AD-like pathology, immunohistochemical analyses were performed to detect amyloid deposition (anti-AβF25276)^5,6, microglial (Iba1) activation^7, astrogliosis (GFAP), synaptophysin protein levels on coronal brain sections. Multiplex MSD ELISA was used to assess Aβ levels and 38,40, and 42 subtypes, and II-1β brain levels. RT-PCR was used to assess levels of human APP^Sw/Ind.
On the technique in general: An ELISA detects its analyte on a solid surface through an enzyme-linked reagent.

In experiment [3] the test system is J20 mice. In words: ELISA of II-1β and other cytokines, treated symptomatic J20 mice. It counts as in vivo, mouse.
Excerpt: FIG. 10: VX-765 reverses neuroinflammation in J20 mice. (a) Iba-1 positive microglia immunohistographs in the stratum lacunosum molecular area of the hippocampus and S1 of cortex (Scale bar=50 μm). (b) Stereological quantification of Iba-1^+ microglia for WT+Vehicle (n=6), J20+Vehicle (n=5), and J20+VX-765 (n=4) in the hippocampus from the pyramidal cell layer to the stratum lacunosum molecular layer (F(2,11)=58, p<0.0001) and cortex (F(2,11)=39.95, p<0.0001, ANOVA, Dunnett's post-hoc compared to J20+Vehicle, ***p<0.001). (c) Average percentage distribution of morphological microglial subtypes 1 (black (lowermost) bar), 2 (light grey bar), 3 (dark grey bar) and 4 (black (uppermost) bar). (d) II1-β pg/mg levels measured by ELISA in pre-treated J20 at 5 months of age and in treated WT and J20 8 months of age. (e) Astroglial GFAP^+ immunohistographs.
FIG. 18: ELISA measures of cytokines in vehicle-treated WT and J20 mice and VX-765-treated J20 mice. (a) Plasma levels of II-1β in mice after T3. (b) Cytokine levels in vehicle-treated WT and J20 and in VX-765-treated J20 brain hippocampi and cortex. (c) GFAP immunostaining density in vehicle-treated WT (n=6) and J20 (n=5) and in VX-765-treated J20 (n=4) brain hippocampi (F(2,12)=5.234, p=0.0232, ANOVA, Dunnett's post-hoc compared to WT+Vehicle, *p<0.05) and cortex. (d) Western blots and quantitative analyses of GFAP in vehicle-treated WT and J20 and in VX-765-treated J20 brain hippocampi and cortex.
as §1

On to `CCO[C@@H]1OC(=O)C[C@@H]1NC(=O)[C@@H]1CCCN1C(=O)[C@@H](NC(=O)c1ccc(N)c(Cl)c1)C(C)(C)C` [VX-765, (S)-1-((S)-2-{[1-(4-amino-3-chloro-phenyl)-methanoyl]-amino}-3,3-dimethyl-butanoyl)-pyrrolidine-2-carboxylic acid ((2R,3S)-2-ethoxy-5-oxo-tetrahydro-furan-3-yl)-amide], for which the IC50 in experiment [1] turned out to be 3.68 nM. Besides, the “Aβ42 level in cortex” value in experiment [2] (ELISA of RIPA-extracted brain proteins) is reported as “reduced”. Further, the “formic acid soluble Aβ38, Aβ40, Aβ42” value in experiment [2] (hippocampal and cortical tissues) is “less abundant”. In experiment [2] (hippocampus), the “RIPA soluble Aβ42” value is “reduced in the hippocampus” and the “formic acid soluble Aβ42 over total Aβ38+40+42” value is “also reduced”. Also, in experiment [2] (hippocampus and cortex), the “RIPA-soluble Aβ42 over total Aβ38+40+42” value is given as “also reduced” and the “formic acid soluble total Aβ” value is “strongly decreased”. Moreover, in experiment [2] (hippocampus and cortex, 50 mg/kg, 12 injections, vs vehicle-injected J20, 50 mg/kg), the “deposited Aβ (thioflavin S, anti-Aβ immunostaining)” value is listed as “only retained rare amyloid deposits; also recorded: substantially reduced”. Also, the “TNFα protein level in hippocampi” value in experiment [3] was “returned to normal”. The “II-1β level in hippocampus” value in experiment [3] (50 mg/kg, after Treatment 3) is reported as “reduced after VX-765 treatment”. For the same compound, the “II-1β level in plasma” value in experiment [3] (after Treatment 3) is “No changes were seen”. Further, in experiment [3] (brain hippocampi and cortex), the “other inflammatory protein levels (TNF-α, KC-GRO, IFN-γ)” value is reported as “No significant difference”.

The record behind these values is patent US11160788B2, “Caspase-1 inhibition and uses thereof for prevention and treatment of neurological conditions” (priority 2016, dated 2021).
